This passage reports IC50 results from patent US10106501B2, “Nuclear receptor modulators” (AbbVie Inc., priority 2015, dated 2018).

The experiment concerns the target T1, chimeric human RORγ-Gal4 receptor (Homo sapiens, UniProt P51449).
T1 sequence (P51449 269-508 limits assumed): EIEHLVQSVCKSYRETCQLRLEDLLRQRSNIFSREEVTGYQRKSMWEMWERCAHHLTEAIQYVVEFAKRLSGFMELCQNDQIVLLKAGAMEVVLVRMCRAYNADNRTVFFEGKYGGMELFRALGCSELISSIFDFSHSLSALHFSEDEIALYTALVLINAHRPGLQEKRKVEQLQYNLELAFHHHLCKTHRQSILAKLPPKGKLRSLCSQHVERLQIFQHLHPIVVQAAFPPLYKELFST
The experiment is described as follows: transient transactivation assay (RORγ-Gal4 luciferase reporter). The note with it: Cos-7 cells transfected with RORγ-Gal4 and 5Gal4 pGL3 TK Luc reporter; overnight incubation; T0901317 at 10^-5 M as reference; read-out: IC50. The class given is cell-based. On the technique in general: In a reporter assay the amount or activity of a reporter protein is the signal.
Turning to `Cc1ncc(C(=O)N2CCC(C3COC3)CC2)c(C)c1C(=O)c1cc2c(C)cc(C#N)cc2n1C` [Example BD, 2-[2,4-dimethyl-5-[4-(oxetan-3-yl)piperidine-1-carbonyl]pyridine-3-carbonyl]-1,4-dimethyl-indole-6-carbonitrile], the 50% inhibitory concentration (IC50) fell in the range of 1000 to 10000 nM.

For `Cc1cc(C#N)cc2c1cc(Cc1c(Cl)cnc(C(=O)N3CCC(CC(=O)O)CC3)c1Cl)n2C` [Example BG, 2-[1-[3,5-dichloro-4-[(6-cyano-1,4-dimethyl-indol-2-yl)methyl]pyridine-2-carbonyl]-4-piperidyl]acetic acid], the IC50 was 500 to 1000 nM.

On to `Cc1cc(C(F)(F)F)cc2c1cc(Cc1c(Cl)ncc(C(=O)N3CCOCC3)c1Cl)n2C` [Example BH, (4,6-dichloro-5-((1,4-dimethyl-6-(trifluoromethyl)-1H-indol-2-yl)methyl)pyridin-3-yl)(morpholino)methanone], for which the IC50 is < 100 nM.

For `Cc1cc(C(F)(F)F)cc2c1cc(Cc1c(Cl)cn(CCC(=O)O)c(=O)c1Cl)n2C` [Example BI, 3-(3,5-dichloro-4-((1,4-dimethyl-6-(trifluoromethyl)-1H-indol-2-yl)methyl)-2-oxopyridin-1(2H)-yl)propanoic acid], the IC50 is 1000 to 10000 nM.

With `Cc1cc(C(F)(F)F)cc2c1nc(Cc1c(Cl)ccc(C(=O)N3C[C@@H]4[C@H](C3)[C@H]4C(=O)O)c1Cl)n2C` [Example BL, (1R,5S,6r)-3-(2,4-dichloro-3-((1,4-dimethyl-6-(trifluoromethyl)-1H-benzo[d]imidazol-2-yl)methyl)benzoyl)-3-azabicyclo[3.1.0]hexane-6-carboxylic acid], the IC50 is 1000 to 10000 nM.

Take `Cc1cc(C)c2nc(Cc3c(Cl)ccc(C(=O)N4CCOCC4)c3Cl)n(C)c2c1` [Example BO, (2,4-dichloro-3-((1,4,6-trimethyl-1H-benzo[d]imidazol-2-yl)methyl)phenyl)(morpholino)methanone]: the IC50 was in the range of 500 to 1000 nM.

Consider `Cc1ccc(C(=O)N2CCOCC2)c(C)c1Cc1nc2c(C)cc(Br)cc2n1C` [Example BR, (3-((6-bromo-1,4-dimethyl-1H-benzo[d]imidazol-2-yl)methyl)-2,4-dimethylphenyl)(morpholino)methanone], for which the concentration for half-maximal inhibition (IC50) fell in the range of 100 to 500 nM.

On to `Cc1cc(C(F)(F)F)cc2c1nc(C(=O)c1c(Cl)ccc(C(=O)N3CCOCC3)c1Cl)n2C` [Example BS, (2,4-dichloro-3-(1,4-dimethyl-6-(trifluoromethyl)-1H-benzo[d]imidazole-2-carbonyl)phenyl)(morpholino)methanone], for which the 50% inhibitory concentration (IC50) fell in the range of 100 to 500 nM.

`Cc1cc(C(N)=O)cc2c1nc(C(=O)c1c(Cl)ccc(C(=O)N3CCOCC3)c1Cl)n2C` [Example BT, 2-(2,6-dichloro-3-(morpholine-4-carbonyl)benzoyl)-1,4-dimethyl-1H-benzo[d]imidazole-6-carboxamide]: the IC50 fell in the range of 1000 to 10000 nM.

For the compound `Cc1cc(C(F)(F)F)cc2c1nc(Cc1c(Cl)ccc(C(=O)N3CCC(CC(=O)O)CC3)c1Cl)n2C` [Example BU, 2-(1-(2,4-dichloro-3-((1,4-dimethyl-6-(trifluoromethyl)-1H-benzo[d]imidazol-2-yl)methyl)benzoyl)piperidin-4-yl)acetic acid], the 50% inhibitory concentration (IC50) was < 100 nM.

With `COCCC1CCN(Cc2ccc(Cl)c(Cc3nc4c(C)cc(C(F)(F)F)cc4n3C)c2Cl)CC1` [Example BW, 2-[[2,6-dichloro-3-[[4-(2-methoxyethyl)-1-piperidyl]methyl]phenyl]methyl]-1,4-dimethyl-6-(trifluoromethyl)benzimidazole], the half-inhibitory concentration (IC50) was in the range of 100 to 500 nM.

`Cc1c(Br)ccc2c1nc(Cc1c(Cl)ccc(C(=O)N3CCOCC3)c1Cl)n2C` [Example CB, (3-((5-bromo-1,4-dimethyl-1H-benzo[d]imidazol-2-yl)methyl)-2,4-dichlorophenyl)(morpholino)methanone]: the IC50 lay in the range of 100 to 500 nM.

For `CCn1c(Cc2c(Cl)ccc(C(=O)N3CCOCC3)c2Cl)cc2c(C)cc(C(F)(F)F)cc21` [Example D-1], the IC50 is < 100 nM.

In the case of `CC(=O)n1c(Cc2c(Cl)ccc(C(=O)N3CCOCC3)c2Cl)cc2c(C)cc(C(F)(F)F)cc21` [Example D-2], the IC50 is < 100 nM.

Turning to `Cc1cc(C(F)(F)F)cc2c1c(Cc1c(Cl)ccc(C(=O)N3C[C@@H]4[C@H](C3)[C@H]4C(=O)O)c1Cl)cn2C` [Example F1-1], the IC50 was < 100 nM.

For `Cc1cc(C(F)(F)F)cc2c1c(Cc1c(Cl)ccc(C(=O)N3CC[C@H](C(=O)O)[C@H](C)C3)c1Cl)cn2C` [Example F1-2], the IC50 is < 100 nM.

For the compound `Cc1cc(C(F)(F)F)cc2c1c(Cc1c(Cl)ccc(C(=O)N3CC[C@@H](C(=O)O)[C@@H](C)C3)c1Cl)cn2C` [Example F1-3], the IC50 is < 100 nM.

For the compound `Cc1cc(C#N)cc2c1cc(Cc1c(Cl)ncc(C(=O)N3CCC4(CCOC4)CC3)c1Cl)n2C` [Example FB, 2-((2,4-dichloro-5-(2-oxa-8-azaspiro[4.5]decane-8-carbonyl)pyridin-3-yl)methyl)-1,4-dimethyl-1H-indole-6-carbonitrile], the IC50 is < 100 nM.

With `Cc1cc(C#N)cc2c1cc(Cc1c(Cl)ncc(C(=O)N3CCC(C4COC4)CC3)c1Cl)n2C` [Example FC, 2-((2,4-dichloro-5-(4-(oxetan-3-yl)piperidine-1-carbonyl)pyridin-3-yl)methyl)-1,4-dimethyl-1H-indole-6-carbonitrile], the IC50 is < 100 nM.

For `COc1cc(C)c2cc(Cc3c(Cl)ccc(C(=O)N4CCC(CC(=O)O)CC4)c3Cl)n(C)c2c1` [Example FD, 2-(1-(2,4-dichloro-3-((6-methoxy-1,4-dimethyl-1H-indol-2-yl)methyl)benzoyl)piperidin-4-yl)acetic acid], the IC50 is < 100 nM.

Regarding `Cn1c(Cc2c(Cl)ccc(C(=O)N3CCC(CC(=O)O)CC3)c2Cl)cc2c(F)cc(C(F)(F)F)cc21` [Example FE, 2-(1-(2,4-dichloro-3-((4-fluoro-1-methyl-6-(trifluoromethyl)-1H-indol-2-yl)methyl)benzoyl)piperidin-4-yl)acetic acid], the 50% inhibitory concentration (IC50) was < 100 nM.

Turning to `Cc1cc(OC(F)F)cc2c1cc(Cc1c(Cl)ccc(C(=O)N3CCC(CC(=O)O)CC3)c1Cl)n2C` [Example FF, 2-(1-(2,4-dichloro-3-((6-(difluoromethoxy)-1,4-dimethyl-1H-indol-2-yl)methyl)benzoyl)piperidin-4-yl)acetic acid], the half-maximal inhibitory concentration (IC50) was < 100 nM.

Consider `Cc1cc(C(F)(F)F)cc2c1cc(C(=O)c1c(Cl)ncc(C(=O)N3CCC(CC(=O)O)CC3)c1Cl)n2C` [Example FG, 2-(1-(4,6-dichloro-5-(1,4-dimethyl-6-(trifluoromethyl)-1H-indole-2-carbonyl)nicotinoyl)piperidin-4-yl)acetic acid], for which the half-inhibitory concentration (IC50) was < 100 nM.

As to `Cc1cc(C(F)(F)F)cc2c1cc(Cc1c(Cl)cnc(C(=O)N3CCC(CC(=O)O)CC3)c1Cl)n2C` [Example FH, 2-(1-(3,5-dichloro-4-((1,4-dimethyl-6-(trifluoromethyl)-1H-indol-2-yl)methyl)picolinoyl)piperidin-4-yl)acetic acid], the IC50 is < 100 nM.

As for `Cn1c(Cc2c(Cl)ccc(C(=O)N3CCC(CC(=O)O)CC3)c2Cl)cc2ccc(OC(F)(F)F)cc21` [Example FI, 2-(1-(2,4-dichloro-3-((1-methyl-6-(trifluoromethoxy)-1H-indol-2-yl)methyl)benzoyl)piperidin-4-yl)acetic acid], the 50% inhibitory concentration (IC50) is < 100 nM.

`Cc1nc(C(F)(F)F)cc2c1cc(Cc1c(Cl)ccc(C(=O)N3CCN(C4COC4)CC3)c1Cl)n2C` [Example FJ, (2,4-dichloro-3-((1,4-dimethyl-6-(trifluoromethyl)-1H-pyrrolo[3,2-c]pyridin-2-yl)methyl)phenyl)(4-(oxetan-3-yl)piperazin-1-yl)methanone]: the IC50 was < 100 nM.

With `CC(=O)Nc1cc(C)c2cc(Cc3c(Cl)ccc(C(=O)N4CCOCC4)c3Cl)n(C)c2c1` [Example FK, N-(2-(2,6-dichloro-3-(morpholine-4-carbonyl)benzyl)-1,4-dimethyl-1H-indol-6-yl)acetamide], the IC50 was < 100 nM.

As to `Cn1c(Cc2c(C3CC3)ccc(C(=O)N3CCC(CC(=O)O)CC3)c2Cl)cc2ccc(OC(F)(F)F)cc21` [Example FL, 2-(1-(2-chloro-4-cyclopropyl-3-((1-methyl-6-(trifluoromethoxy)-1H-indol-2-yl)methyl)benzoyl)piperidin-4-yl)acetic acid], the IC50 was < 100 nM.

As for `Cn1c(Cc2c(Cl)ccc(C(=O)N3CCC(CC(=O)O)CC3)c2Cl)cc2c(F)cc(C3CC3)cc21` [Example FM, 2-(1-(2,4-dichloro-3-((6-cyclopropyl-4-fluoro-1-methyl-1H-indol-2-yl)methyl)benzoyl)piperidin-4-yl)acetic acid], the half-inhibitory concentration (IC50) was < 100 nM.

For `Cn1c(Cc2c(Cl)ccc(C(=O)N3CCC(C(=O)O)CC3)c2Cl)cc2c(F)cc(C3CC3)cc21` [Example FN, 1-(2,4-dichloro-3-((6-cyclopropyl-4-fluoro-1-methyl-1H-indol-2-yl)methyl)benzoyl)piperidine-4-carboxylic acid], the half-maximal inhibitory concentration (IC50) is < 100 nM.

For `Cc1cc(C(=O)N(C)C)cc2c1cc(Cc1c(Cl)ccc(C(=O)N3CCOCC3)c1Cl)n2C` [Example FO, 2-[[2,6-dichloro-3-(morpholine-4-carbonyl)phenyl]methyl]-N,N,1,4-tetramethyl-indole-6-carboxamide], the 50% inhibitory concentration (IC50) is < 100 nM.

Take `CNC(=O)c1cc(C)c2cc(Cc3c(Cl)ccc(C(=O)N4CCOCC4)c3Cl)n(C)c2c1` [Example FP, 2-[[2,6-dichloro-3-(morpholine-4-carbonyl)phenyl]methyl]-N,1,4-trimethyl-indole-6-carboxamide]: the IC50 was < 100 nM.

`Cc1cc(C(F)(F)F)cc2c1c(Cc1c(Cl)ccc(C(=O)N3CCC(C(=O)O)CC3)c1Cl)cn2C` [Example FQ, 1-(2,4-dichloro-3-((1,4-dimethyl-6-(trifluoromethyl)-1H-indol-3-yl)methyl)benzoyl)piperidine-4-carboxylic acid]: the half-maximal inhibitory concentration (IC50) was < 100 nM.

As usually defined, the IC50 is the concentration at which inhibition is half-maximal.
